Experimental data as given in patent EP0684766B1, “HERBICIDAL COMPOSITIONS” (Hoechst Schering AgrEvo GmbH, priority 1993, dated 1994).

Columns and labels:
Galium aparine = assay: Post-emergent field test on winter cereals, % control of weeds; conditions: for % Control GALAP: post-emergent
Procedure: (§1) The Examples are field tests carried out post-emergently in the Autumn on winter cereals. The compositions are evenly applied to the plants as suspensions using a water amount of 500 litres per hectare. […] The evaluation of the individual components (a) and (b) as well as their mixtures was carried out on a scale where 0 is no damage and 100 is complete destruction of the plants.

Viola arvensis = assay: as above; conditions: for % Control VIOLA: post-emergent
Procedure: as §1

Matricaria chamomilla = assay: as above; conditions: for % Control MATCH: post-emergent
Procedure: as §1

Stellaria media = assay: as above; conditions: for % Control STEME: post-emergent
Procedure: as §1

plants = assay: Herbicidal activity of the phosphonate applied on its own; type: in vivo
[1] = 15 g ai/ha, evaluation 30 days after application
[2] = 24 g ai/ha, evaluation 15 days after application
[3] = 48 g ai/ha, evaluation 15 days after application
[4] = 48 g ai/ha, evaluation 30 days after application
[5] = 95 g ai/ha, evaluation 15 days after application
[6] = 10 g ai/ha, evaluation 15 days after application
[7] = Galium aparine, post-emergence, 360 h, read-out: % Control GALAP
[8] = Viola arvensis, post-emergence, 360 h, read-out: % Control VIOLA
[9] = Matricaria chamomilla, post-emergence, 360 h, read-out: % Control MATCH
[10] = Stellaria media, post-emergence, 360 h, read-out: % Control STEME
[11] = Galium aparine, post-emergence, 720 h, read-out: % Control GALAP
[12] = Viola arvensis, post-emergence, 720 h, read-out: % Control VIOLA
[13] = Matricaria chamomilla, post-emergence, 720 h, read-out: % Control MATCH
[14] = Stellaria media, post-emergence, 720 h, read-out: % Control STEME

COC(=O)c1ccccc1S(=O)(=O)NC(=O)N(C)c1nc(C)nc(OC)n1
% Control GALAP (Galium aparine; [1]): 47% | % Control VIOLA (Viola arvensis; [1]): 40% | % Control MATCH (Matricaria chamomilla; [1]): 88% | % Control STEME (Stellaria media; [1]): 78%

CCCCC(CC)COP(=O)(CC(CC)CCCC)OCC(CC)CCCC (stereo not shown) [(a), O,O-bis(2-ethylhexyl)(2-ethylhexyl)phosphonate]
% Control GALAP (Galium aparine; [2]): 0% | % Control GALAP (Galium aparine; [3]): 0% | % Control GALAP (Galium aparine; [4]): 0% | % Control GALAP (Galium aparine; [5]): 0% | % Control VIOLA (Viola arvensis; [3]): 0% | % Control VIOLA (Viola arvensis; [4]): 0% | % Control VIOLA (Viola arvensis; [5]): 0% | herbicidal activity (plants): no herbicidal activity | % Control MATCH (Matricaria chamomilla; [2]): 0% | % Control MATCH (Matricaria chamomilla; [3]): 0% | % Control MATCH (Matricaria chamomilla; [4]): 0% | % Control MATCH (Matricaria chamomilla; [5]): 0% | % Control STEME (Stellaria media; [2]): 0% | % Control STEME (Stellaria media; [3]): 0% | % Control STEME (Stellaria media; [4]): 0% | % Control STEME (Stellaria media; [5]): 0%

C#CCN1C(=O)COc2cc(F)c(N=c3snc4n3CC(C)(C)C4)cc21 [(b1), 6-(6,7-dihydro-6,6-dimethyl-3H,5H-pyrrolo[2,1-c][1,2,4]thiadiazol-3-ylidenimino)-7-fluoro-4-(2-propynyl)-2H-1,4-benzoxazin-3(4H)-one]
% Control GALAP (Galium aparine; [6]): 47% | % Control MATCH (Matricaria chamomilla; [6]): 50% | % Control STEME (Stellaria media; [6]): 70%

C#CCN1C(=O)COc2cc(F)c(N3C(=O)C4CCCCN4C3=O)cc21 (stereo not shown) [(b2), 2-[7-fluoro-3-oxo-4-(2-propynyl)-3,4-dihydro-2H-1,4-benzoxazin-6-yl]perhydroimidazo[1,5-a]pyridine-1,3-dione]
pest or weed control at 15 g/ha (Galium aparine; [7]): 35% | pest or weed control at 15 g/ha (Viola arvensis; [8]): 37% | pest or weed control at 15 g/ha (Matricaria chamomilla; [9]): 90% | pest or weed control at 15 g/ha (Stellaria media; [10]): 27%

CCc1nc2c(Cl)cc(F)c(N3C(=O)C4=C(CCCC4)C3=O)c2s1 [(b3), N-(4-chloro-2-ethyl-6-fluorobenzothiazol-7-yl)-1-cyclohexene-1,2-dicarboximide]
pest or weed control at 15 g/ha (Galium aparine; [7]): 33% | pest or weed control at 15 g/ha (Viola arvensis; [8]): 83% | pest or weed control at 15 g/ha (Matricaria chamomilla; [9]): 99% | pest or weed control at 15 g/ha (Stellaria media; [10]): 20%

COc1cc(OC)nc(NC(=O)NS(=O)(=O)N(C)S(C)(=O)=O)n1 [(b4), 3-[4,6-dimethoxypyrimidin-2-yl)-1-(N-methyl-N-methylsulfonyl-aminosulfonyl)urea]
pest or weed control at 12 g/ha (Galium aparine; [11]): 42% | pest or weed control at 12 g/ha (Viola arvensis; [12]): 20% | pest or weed control at 12 g/ha (Matricaria chamomilla; [13]): 55% | pest or weed control at 12 g/ha (Stellaria media; [14]): 40%

CC(C)c1ccc(NC(=O)N(C)C)cc1 [(b6), isoproturon]
pest or weed control at 750 g/ha (Galium aparine; [11]): 13% | pest or weed control at 750 g/ha (Viola arvensis; [12]): 30% | pest or weed control at 750 g/ha (Matricaria chamomilla; [13]): 83% | pest or weed control at 750 g/ha (Stellaria media; [14]): 55%

Cc1ccc(NC(=O)N(C)C)cc1Cl [(b7), chlorotoluron]
pest or weed control at 750 g/ha (Galium aparine; [11]): 15% | pest or weed control at 750 g/ha (Viola arvensis; [12]): 23% | pest or weed control at 750 g/ha (Matricaria chamomilla; [13]): 88% | pest or weed control at 750 g/ha (Stellaria media; [14]): 85%

CCOC(=O)Cn1c(=O)sc2cccc(Cl)c21 [(b8), benazolin-ethyl]
pest or weed control at 200 g/ha (Galium aparine; [11]): 18% | pest or weed control at 200 g/ha (Viola arvensis; [12]): 22% | pest or weed control at 200 g/ha (Stellaria media; [14]): 88%

O=C(O)CNCP(=O)(O)O [(b9), glyphosate]
pest or weed control at 50 g/ha (Galium aparine; [11]): 20% | pest or weed control at 50 g/ha (Viola arvensis; [12]): 10% | pest or weed control at 50 g/ha (Matricaria chamomilla; [13]): 28% | pest or weed control at 50 g/ha (Stellaria media; [14]): 25%

COC(=O)c1cc(Oc2ccc(Cl)cc2Cl)ccc1[N+](=O)[O-] [bifenox]
pest or weed control at 500 g/ha (Galium aparine; [7]): 78% | pest or weed control at 500 g/ha (Viola arvensis; [8]): 95% | pest or weed control at 500 g/ha (Matricaria chamomilla; [9]): 63% | pest or weed control at 500 g/ha (Stellaria media; [10]): 15%

COc1nc(C)nc(=NC(=O)NS(=O)(=O)c2ccccc2C(=O)O)[nH]1 [metsulfuron]
pest or weed control at 3 g/ha (Galium aparine; [11]): 10% | pest or weed control at 3 g/ha (Viola arvensis; [12]): 50% | pest or weed control at 3 g/ha (Matricaria chamomilla; [13]): 97% | pest or weed control at 3 g/ha (Stellaria media; [14]): 96%
